The values that follow come from patent publication US20260053861A1, “CELL COMPOSITIONS AND METHODS OF USING THE SAME” (THE REGENTS OF THE UNIVERSITY OF CALIFORNIA, priority 2022, published 2026).

SMILES strings stand for the structures. Where a name gives a salt, the structure may show the parent alone.

The first test has as its system hPSC-SCs.
Conditions: not given
With `COc1ccc2c(c1)[C@]13CCCC[C@@H]1[C@H](C2)N(C)CC3`, the z.score.t amounted to 1.28.
`COc1cc2c(cc1OC)C(C)NCC2.Cl` (stereo not shown) returned a z.score.t of 0.3024.
Still for that read-out and setting: to `CN1CCc2cccc3c2[C@H]1Cc1ccc(O)c(O)c1-3.CN1CCc2cccc3c2[C@H]1Cc1ccc(O)c(O)c1-3.Cl.Cl.O` belongs −1.904; to `CN(N=O)C(=O)N[C@H]1C(O)O[C@H](CO)[C@@H](O)[C@@H]1O` (mixture of isomers) [Streptozotocin], 0.03421.
For `Cl.NCC(O)c1ccc(O)cc1` (racemic) [(+, −)-Octopamine hydrochloride], the z.score.t was 0.6574.
As for `CNCC(O)c1ccc(O)cc1` (racemic) [(+, −)-Synephrine], the z.score.t was −0.2329.
On the same count and under the same terms, as for `O=C(O)C1CCCNC1` (racemic) [(ñ)-Nipecotic acid], the figure is −0.7376.
Still for that read-out and setting: as for `NCC(CC(=O)O)c1ccc(Cl)cc1` (racemic) [Baclofen (R,S)], the figure is 1.088; as for `Nc1c2c(nc3ccccc13)CCCC2O.O=C(O)/C=C\C(=O)O` (racemic) [Hydroxytacrine maleate (R,S)], 0.713.
Same read-out and setting: as for `COc1ccc(CC2c3cc(OC)c(OC)cc3CCN2C)cc1OC` (racemic) [Laudanosine (R,S)], the figure is −0.3319; as for `CC(=O)NC1CCSC1=O` (racemic) [N-Acetyl-DL-homocysteine Thiolactone], 0.0116.
As for `CN1CCC2(C)c3cc(O)ccc3N(C)C12.O=C(O)/C=C/C(=O)O` (single isomer, unassigned; (-)) [(−)-Eseroline fumarate salt], the z.score.t is recorded as −1.336.
In the case of `CC(=C(CCO)SSCC1CCCO1)N(C=O)Cc1cnc(C)nc1N` (stereo in doubt) [Fursultiamine Hydrochloride], the z.score.t was 1.483.
On the same count and under the same terms, as for `C[C@]12CC[C@@H](O)C[C@H]1CC[C@@H]1[C@@H]2CC[C@]2(C)C(=O)CC[C@@H]12` [3-alpha-Hydroxy-5-beta-androstan-17-one], the figure is −0.1014.

The test is the same for the next values; noted with them: HTS viability of hPSC-SCs in the presence of 30 mM glucose; Prestwick library; Table S4.
Regarding `Cc1ccc(Cl)c(Nc2ccccc2C(=O)O)c1Cl`, the z.score.t was −1.427.
Same read-out and setting: to `CC(C)NCC(O)c1cc(O)cc(O)c1.CC(C)NCC(O)c1cc(O)cc(O)c1.O=S(=O)(O)O` (stereo not shown) belongs 0.4451; to `O=C(O)Cc1cc(I)c(Oc2ccc(O)c(I)c2)c(I)c1`, 0.4486; to `CN(Cc1cnc2nc(N)nc(N)c2n1)c1ccc(C(=O)N[C@@H](CCC(=O)O)C(=O)O)cc1` (racemic) [Amethopterin (R,S)], 0.3845.
The same measure, in the same setting: to `CC(=O)NC(CC(=O)O)C(=O)O` (racemic) [Aspartic acid, N-acetyl (R,S)] belongs 0.006455.
Still for that read-out and setting: as for `O.Oc1cc(O)c2c(c1)OC(c1ccc(O)c(O)c1)C(O)C2` (racemic) [Catechin-(+, −) hydrate], the figure is 0.2361.
For the compound `OCC(O)CN1CCN(c2ccccc2)CC1` (racemic) [Dropropizine (R,S)], the z.score.t was determined as 0.7162.
In the case of `COCCc1ccc(OCC(O)CNC(C)C)cc1.COCCc1ccc(OCC(O)CNC(C)C)cc1.O=C(O)C(O)C(O)C(=O)O` (racemic) [Metoprolol-(+, −) (+)-tartrate salt], the z.score.t turned out to be 1.223.
The same measure, in the same setting: to `CC(C)NCC(O)c1ccc(O)c(O)c1.Cl` (single isomer, unassigned; (-)) [(−)-Isoproterenol hydrochloride] belongs −0.1043; to `CC(=O)NC1[C@@H](O)OC(CO)[C@@H](O)[C@H]1O[C@H](C)C(=O)O` (stereo in doubt) [Muramic acid, N-acetyl], 1.616.
On the same count and under the same terms, to `Nc1ccccc1S(N)(=O)=O` [2-Aminobenzenesulfonamide] belongs 1.43; to `Clc1cnccn1` [2-Chloropyrazine], 0.2112.
On the same count and under the same terms, to `CC(=O)Nc1cc2ccccc2oc1=O` [3-Acetamidocoumarin] belongs −1.551; to `CC(=O)c1cc2ccccc2oc1=O` [3-Acetylcoumarin], −0.7757.
